Test results from ChEMBL document CHEMBL3797029, “Purinylpyridinylamino-based DFG-in/αC-helix-out B-Raf inhibitors: Applying mutant versus wild-type B-Raf selectivity indices for compound profiling” (Bioorg Med Chem, 2016).

Experiments:
[1] = target: Serine/threonine-protein kinase pim-1 (Homo sapiens) (UniProt P11309); assay: Inhibition of partial length wild type human PIM1 expressed in bacterial system assessed as enzyme activity at 1 uM relative to control; design: scale not given: the % may be the effect or the level left
[2] = target: Ephrin type-B receptor 3 (Homo sapiens) (UniProt P54753); assay: Inhibition of partial length wild type human EPHB3 expressed in bacterial system assessed as enzyme activity at 1 uM relative to control; design: scale not given: the % may be the effect or the level left
[3] = target: Myotonin-protein kinase (Homo sapiens) (UniProt Q09013); assay: Inhibition of partial length wild type human DMPK expressed in bacterial system assessed as enzyme activity at 1 uM relative to control; design: scale not given: the % may be the effect or the level left
[4] = target: ALK tyrosine kinase receptor (Homo sapiens) (UniProt Q9UM73); assay: Inhibition of partial length wild type human ALK expressed in mammalian system assessed as enzyme activity at 1 uM relative to control; design: scale not given: the % may be the effect or the level left
Chain of ALK tyrosine kinase receptor (Homo sapiens) (Q9UM73 19-1620 limits assumed): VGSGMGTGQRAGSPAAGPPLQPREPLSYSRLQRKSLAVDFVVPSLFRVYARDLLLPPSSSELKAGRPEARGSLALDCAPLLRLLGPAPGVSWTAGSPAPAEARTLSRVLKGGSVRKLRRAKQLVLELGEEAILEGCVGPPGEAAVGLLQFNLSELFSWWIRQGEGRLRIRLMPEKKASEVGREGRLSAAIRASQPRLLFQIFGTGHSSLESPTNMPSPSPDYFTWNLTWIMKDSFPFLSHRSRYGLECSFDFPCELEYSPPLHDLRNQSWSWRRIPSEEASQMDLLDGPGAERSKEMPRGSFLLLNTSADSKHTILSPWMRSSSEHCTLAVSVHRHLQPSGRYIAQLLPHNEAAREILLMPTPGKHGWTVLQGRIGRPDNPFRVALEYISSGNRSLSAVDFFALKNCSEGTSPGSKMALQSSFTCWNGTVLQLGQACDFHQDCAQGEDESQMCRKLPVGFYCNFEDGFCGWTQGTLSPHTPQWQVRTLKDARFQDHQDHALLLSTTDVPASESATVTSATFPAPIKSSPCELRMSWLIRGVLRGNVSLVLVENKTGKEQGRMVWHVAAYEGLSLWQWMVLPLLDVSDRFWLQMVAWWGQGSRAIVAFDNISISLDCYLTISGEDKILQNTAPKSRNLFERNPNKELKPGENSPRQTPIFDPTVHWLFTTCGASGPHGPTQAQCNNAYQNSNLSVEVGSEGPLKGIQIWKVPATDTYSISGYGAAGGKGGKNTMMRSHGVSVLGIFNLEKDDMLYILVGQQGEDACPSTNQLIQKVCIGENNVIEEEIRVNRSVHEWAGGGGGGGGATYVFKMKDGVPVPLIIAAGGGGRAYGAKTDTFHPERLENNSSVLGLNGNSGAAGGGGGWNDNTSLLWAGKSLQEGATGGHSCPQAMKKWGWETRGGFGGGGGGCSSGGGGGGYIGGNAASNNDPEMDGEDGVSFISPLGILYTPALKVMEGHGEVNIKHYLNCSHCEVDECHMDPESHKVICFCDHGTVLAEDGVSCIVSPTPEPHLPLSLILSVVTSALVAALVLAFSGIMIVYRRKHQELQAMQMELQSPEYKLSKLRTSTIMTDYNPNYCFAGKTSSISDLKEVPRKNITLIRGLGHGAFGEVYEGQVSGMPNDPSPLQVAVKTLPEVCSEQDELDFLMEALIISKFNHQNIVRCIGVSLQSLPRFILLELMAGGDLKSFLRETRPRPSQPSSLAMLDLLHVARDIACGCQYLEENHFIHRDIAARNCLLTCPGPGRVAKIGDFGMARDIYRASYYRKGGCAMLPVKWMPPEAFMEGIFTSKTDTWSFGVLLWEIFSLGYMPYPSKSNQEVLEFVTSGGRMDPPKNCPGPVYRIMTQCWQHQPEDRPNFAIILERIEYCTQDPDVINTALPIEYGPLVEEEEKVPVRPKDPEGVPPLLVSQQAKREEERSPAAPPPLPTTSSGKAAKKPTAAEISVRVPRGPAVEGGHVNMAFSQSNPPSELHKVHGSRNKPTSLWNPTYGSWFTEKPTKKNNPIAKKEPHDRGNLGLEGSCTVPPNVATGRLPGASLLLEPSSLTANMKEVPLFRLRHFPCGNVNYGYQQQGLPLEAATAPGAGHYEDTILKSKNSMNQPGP

[5] = target: Mitogen-activated protein kinase kinase kinase kinase 4 (Homo sapiens) (UniProt O95819); assay: Inhibition of partial length wild type human MAP4K4 expressed in bacterial system assessed as enzyme activity at 1 uM relative to control; design: scale not given: the % may be the effect or the level left
Chain of Mitogen-activated protein kinase kinase kinase kinase 4 (Homo sapiens) (O95819 2-1239 limits assumed): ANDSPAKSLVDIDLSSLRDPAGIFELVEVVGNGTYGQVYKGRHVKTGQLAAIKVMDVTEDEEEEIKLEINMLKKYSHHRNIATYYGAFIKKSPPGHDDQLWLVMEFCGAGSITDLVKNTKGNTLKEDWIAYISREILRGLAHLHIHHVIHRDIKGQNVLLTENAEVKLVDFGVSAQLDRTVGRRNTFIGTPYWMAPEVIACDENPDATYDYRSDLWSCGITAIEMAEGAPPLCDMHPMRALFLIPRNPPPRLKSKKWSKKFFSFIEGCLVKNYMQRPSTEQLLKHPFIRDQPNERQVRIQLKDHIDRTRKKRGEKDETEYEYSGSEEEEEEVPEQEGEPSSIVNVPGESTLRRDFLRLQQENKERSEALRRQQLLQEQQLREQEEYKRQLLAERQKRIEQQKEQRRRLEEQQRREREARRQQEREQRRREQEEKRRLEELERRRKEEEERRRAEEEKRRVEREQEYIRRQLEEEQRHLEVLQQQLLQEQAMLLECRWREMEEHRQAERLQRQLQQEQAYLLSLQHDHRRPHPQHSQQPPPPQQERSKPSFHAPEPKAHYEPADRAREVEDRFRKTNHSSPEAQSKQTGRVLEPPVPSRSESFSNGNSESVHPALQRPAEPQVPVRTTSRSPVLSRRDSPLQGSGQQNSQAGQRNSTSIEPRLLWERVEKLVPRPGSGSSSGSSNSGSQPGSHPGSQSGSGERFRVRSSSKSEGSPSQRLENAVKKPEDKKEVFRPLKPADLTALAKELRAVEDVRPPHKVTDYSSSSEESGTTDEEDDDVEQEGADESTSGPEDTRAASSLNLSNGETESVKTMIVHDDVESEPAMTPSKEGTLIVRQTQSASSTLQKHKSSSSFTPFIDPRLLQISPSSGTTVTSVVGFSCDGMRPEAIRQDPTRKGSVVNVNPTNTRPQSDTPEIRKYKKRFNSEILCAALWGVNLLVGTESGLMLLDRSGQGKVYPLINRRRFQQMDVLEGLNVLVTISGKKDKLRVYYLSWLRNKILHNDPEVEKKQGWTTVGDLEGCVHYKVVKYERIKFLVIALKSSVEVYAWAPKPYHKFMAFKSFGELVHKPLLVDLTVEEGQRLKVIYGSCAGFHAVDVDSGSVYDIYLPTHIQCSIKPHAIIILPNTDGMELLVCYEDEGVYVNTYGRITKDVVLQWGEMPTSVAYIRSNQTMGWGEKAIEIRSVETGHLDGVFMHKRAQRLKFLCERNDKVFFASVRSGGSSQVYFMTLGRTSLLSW

[6] = target: Serine/threonine-protein kinase TAO2 (Homo sapiens) (UniProt Q9UL54); assay: Inhibition of partial length wild type human TAOK2 expressed in mammalian system assessed as enzyme activity at 1 uM relative to control; design: scale not given: the % may be the effect or the level left
[7] = target: RAC-alpha serine/threonine-protein kinase (Homo sapiens) (UniProt P31749); assay: Inhibition of partial length wild type human AKT1 expressed in bacterial system assessed as enzyme activity at 1 uM relative to control; design: scale not given: the % may be the effect or the level left
[8] = target: Tyrosine-protein kinase Lyn (Homo sapiens) (UniProt P07948); assay: Inhibition of partial length wild type human LYN expressed in bacterial system assessed as enzyme activity at 1 uM relative to control; design: scale not given: the % may be the effect or the level left
[9] = target: Serine/threonine-protein kinase TBK1 (Homo sapiens) (UniProt Q9UHD2); assay: Inhibition of full length wild type human TBK1 expressed in mammalian system assessed as enzyme activity at 1 uM relative to control; design: scale not given: the % may be the effect or the level left
[10] = target: Tyrosine-protein kinase JAK2 (Homo sapiens) (UniProt O60674); assay: Inhibition of partial length wild type human JAK2 (catalytic JH1 domain) expressed in mammalian system assessed as enzyme activity at 1 uM relative to control; design: scale not given: the % may be the effect or the level left
[11] = target: Mitogen-activated protein kinase kinase kinase kinase 1 (Homo sapiens) (UniProt Q92918); assay: Inhibition of full length wild type human HPK1 expressed in bacterial system assessed as enzyme activity at 1 uM relative to control; design: scale not given: the % may be the effect or the level left
[12] = target: Mitogen-activated protein kinase kinase kinase 1 (Homo sapiens) (UniProt Q13233); assay: Inhibition of partial length wild type human MAP3K1 expressed in mammalian system assessed as enzyme activity at 1 uM relative to control; design: scale not given: the % may be the effect or the level left
[13] = target: Cyclin-dependent kinase 2 (Homo sapiens) (UniProt P24941); assay: Inhibition of full length wild type human CDK2 expressed in bacterial system assessed as enzyme activity at 1 uM relative to control; design: scale not given: the % may be the effect or the level left
[14] = target: Mast/stem cell growth factor receptor Kit (Homo sapiens) (UniProt P10721); assay: Inhibition of partial length wild type human KIT expressed in bacterial system assessed as enzyme activity at 1 uM relative to control; design: scale not given: the % may be the effect or the level left
[15] = target: RAC-beta serine/threonine-protein kinase (Homo sapiens) (UniProt P31751); assay: Inhibition of partial length wild type human AKT2 expressed in bacterial system assessed as enzyme activity at 1 uM relative to control; design: scale not given: the % may be the effect or the level left
[16] = target: Interleukin-1 receptor-associated kinase 4 (Homo sapiens) (UniProt Q9NWZ3); assay: Inhibition of partial length wild type human IRAK4 expressed in mammalian system assessed as enzyme activity at 1 uM relative to control; design: scale not given: the % may be the effect or the level left
Chain of Interleukin-1 receptor-associated kinase 4 (Homo sapiens) (Q9NWZ3 whole entry): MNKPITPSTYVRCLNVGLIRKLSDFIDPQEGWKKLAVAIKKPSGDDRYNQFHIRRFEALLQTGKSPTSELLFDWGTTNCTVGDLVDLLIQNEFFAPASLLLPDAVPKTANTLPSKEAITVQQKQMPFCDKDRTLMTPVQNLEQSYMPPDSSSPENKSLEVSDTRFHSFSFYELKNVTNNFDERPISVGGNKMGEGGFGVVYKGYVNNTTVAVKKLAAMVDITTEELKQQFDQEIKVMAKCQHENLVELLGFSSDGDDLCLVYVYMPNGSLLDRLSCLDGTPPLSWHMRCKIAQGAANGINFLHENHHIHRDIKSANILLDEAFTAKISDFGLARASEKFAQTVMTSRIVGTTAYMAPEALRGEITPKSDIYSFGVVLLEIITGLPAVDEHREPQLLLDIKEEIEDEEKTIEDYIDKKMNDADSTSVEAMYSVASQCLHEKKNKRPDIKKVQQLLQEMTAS

[17] = target: Serine/threonine-protein kinase mTOR (Homo sapiens) (UniProt P42345); assay: Inhibition of partial length wild type human MTOR expressed in mammalian system assessed as enzyme activity at 1 uM relative to control; design: scale not given: the % may be the effect or the level left
[18] = target: Tyrosine-protein kinase BTK (Homo sapiens) (UniProt Q06187); assay: Inhibition of full length wild type human BTK expressed in mammalian system assessed as enzyme activity at 1 uM relative to control; design: scale not given: the % may be the effect or the level left
[19] = target: Casein kinase I isoform gamma-2 (Homo sapiens) (UniProt P78368); assay: Inhibition of full length wild type human CSNK1G2 expressed in bacterial system assessed as enzyme activity at 1 uM relative to control; design: scale not given: the % may be the effect or the level left
Chain of Casein kinase I isoform gamma-2 (Homo sapiens) (P78368 whole entry, looked up, canonical isoform): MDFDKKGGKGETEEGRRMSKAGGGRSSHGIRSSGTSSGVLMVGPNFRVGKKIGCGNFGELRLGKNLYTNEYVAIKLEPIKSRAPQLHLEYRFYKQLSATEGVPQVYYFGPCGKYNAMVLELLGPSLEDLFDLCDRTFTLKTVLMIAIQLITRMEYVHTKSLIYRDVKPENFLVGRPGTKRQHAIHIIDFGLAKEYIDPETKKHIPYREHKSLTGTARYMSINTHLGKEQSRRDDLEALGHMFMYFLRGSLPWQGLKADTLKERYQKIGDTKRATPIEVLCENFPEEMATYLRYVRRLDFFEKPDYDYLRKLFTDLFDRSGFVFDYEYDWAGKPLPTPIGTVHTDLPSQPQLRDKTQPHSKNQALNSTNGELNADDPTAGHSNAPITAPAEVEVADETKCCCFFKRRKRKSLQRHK

[20] = target: Casein kinase I isoform delta (Homo sapiens) (UniProt P48730); assay: Inhibition of full length wild type human CSNK1D expressed in bacterial system assessed as enzyme activity at 1 uM relative to control; design: scale not given: the % may be the effect or the level left
Chain of Casein kinase I isoform delta (Homo sapiens) (P48730 whole entry, looked up, canonical isoform): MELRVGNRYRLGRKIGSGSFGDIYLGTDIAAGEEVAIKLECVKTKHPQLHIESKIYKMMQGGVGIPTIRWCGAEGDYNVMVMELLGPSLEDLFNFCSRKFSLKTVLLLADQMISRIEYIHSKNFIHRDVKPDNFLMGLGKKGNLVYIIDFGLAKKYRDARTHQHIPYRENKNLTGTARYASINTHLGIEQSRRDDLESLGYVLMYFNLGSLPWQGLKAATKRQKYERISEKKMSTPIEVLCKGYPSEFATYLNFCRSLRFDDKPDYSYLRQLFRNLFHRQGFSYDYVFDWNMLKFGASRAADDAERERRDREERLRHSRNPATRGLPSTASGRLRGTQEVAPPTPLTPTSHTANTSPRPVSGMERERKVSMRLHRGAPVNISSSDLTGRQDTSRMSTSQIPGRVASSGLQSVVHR

[21] = target: TGF-beta receptor type-1 (Homo sapiens) (UniProt P36897); assay: Inhibition of partial length wild type human TGFBR1 expressed in bacterial system assessed as enzyme activity at 1 uM relative to control; design: scale not given: the % may be the effect or the level left
[22] = target: Vascular endothelial growth factor receptor 2 (Homo sapiens) (UniProt P35968); assay: Inhibition of partial length wild type human VEGFR2 expressed in mammalian system assessed as enzyme activity at 1 uM relative to control; design: scale not given: the % may be the effect or the level left
[23] = target: Ribosomal protein S6 kinase alpha-1 (Homo sapiens) (UniProt Q15418); assay: Inhibition of partial length wild type human RSK1(Kin.Dom.1-N-terminal) expressed in bacterial system assessed as enzyme activity at 1 uM relative to control; design: scale not given: the % may be the effect or the level left
[24] = target: Bone morphogenetic protein receptor type-1A (Homo sapiens) (UniProt P36894); assay: Inhibition of partial length wild type human BMPR1A expressed in bacterial system assessed as enzyme activity at 1 uM relative to control; design: scale not given: the % may be the effect or the level left
Chain of Bone morphogenetic protein receptor type-1A (Homo sapiens) (P36894 whole entry): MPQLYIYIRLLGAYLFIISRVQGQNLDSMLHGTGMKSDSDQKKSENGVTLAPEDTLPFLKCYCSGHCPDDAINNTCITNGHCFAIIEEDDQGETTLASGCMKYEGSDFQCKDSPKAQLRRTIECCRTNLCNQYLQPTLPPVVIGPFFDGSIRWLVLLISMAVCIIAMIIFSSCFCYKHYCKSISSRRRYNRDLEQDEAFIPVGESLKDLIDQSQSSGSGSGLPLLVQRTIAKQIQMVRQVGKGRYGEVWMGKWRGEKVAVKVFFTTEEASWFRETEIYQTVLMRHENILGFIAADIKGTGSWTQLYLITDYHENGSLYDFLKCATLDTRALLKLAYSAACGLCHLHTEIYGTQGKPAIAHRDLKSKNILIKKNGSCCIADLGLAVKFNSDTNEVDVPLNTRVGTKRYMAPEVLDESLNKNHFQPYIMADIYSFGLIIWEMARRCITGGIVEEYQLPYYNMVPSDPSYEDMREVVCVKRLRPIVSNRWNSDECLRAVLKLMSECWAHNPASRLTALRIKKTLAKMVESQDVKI

[25] = target: Insulin receptor (Homo sapiens) (UniProt P06213); assay: Inhibition of partial length wild type human INSR expressed in mammalian system assessed as enzyme activity at 1 uM relative to control; design: scale not given: the % may be the effect or the level left
[26] = target: Serine/threonine-protein kinase 32B (Homo sapiens) (UniProt Q9NY57); assay: Inhibition of full length wild type human YANK2 expressed in bacterial system assessed as enzyme activity at 1 uM relative to control; design: scale not given: the % may be the effect or the level left
Chain of Serine/threonine-protein kinase 32B (Homo sapiens) (Q9NY57 whole entry): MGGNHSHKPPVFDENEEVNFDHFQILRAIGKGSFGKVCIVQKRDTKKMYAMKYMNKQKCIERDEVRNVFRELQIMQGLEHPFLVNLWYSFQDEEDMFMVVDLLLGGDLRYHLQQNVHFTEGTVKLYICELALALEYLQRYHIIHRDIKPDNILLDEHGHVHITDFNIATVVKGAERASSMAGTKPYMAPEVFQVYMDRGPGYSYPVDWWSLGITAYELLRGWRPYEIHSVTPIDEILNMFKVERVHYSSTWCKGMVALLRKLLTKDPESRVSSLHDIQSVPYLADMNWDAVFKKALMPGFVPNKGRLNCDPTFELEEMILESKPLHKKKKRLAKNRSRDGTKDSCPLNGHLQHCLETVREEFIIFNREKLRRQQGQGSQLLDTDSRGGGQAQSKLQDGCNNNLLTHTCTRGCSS

[27] = target: Proto-oncogene tyrosine-protein kinase Src (Homo sapiens) (UniProt P12931); assay: Inhibition of partial length wild type human SRC expressed in bacterial system assessed as enzyme activity at 1 uM relative to control; design: scale not given: the % may be the effect or the level left
[28] = target: Protein-tyrosine kinase 6 (Homo sapiens) (UniProt Q13882); assay: Inhibition of partial length wild type human BRK expressed in bacterial system assessed as enzyme activity at 1 uM relative to control; design: scale not given: the % may be the effect or the level left
[29] = target: Serine/threonine-protein kinase MARK1 (Homo sapiens) (UniProt Q9P0L2); assay: Inhibition of partial length wild type human MARK1 expressed in bacterial system assessed as enzyme activity at 1 uM relative to control; design: scale not given: the % may be the effect or the level left
MIA PaCa-2 = assay: Selectivity index, ratio of EC50 for wild type B-Raf in human MIAPaCa2 cells to IC50 for B-Raf V600E mutant in human A375 cells; format: cell-based
[30] = target: Serine/threonine-protein kinase B-raf (Homo sapiens, UniProt P15056, V600E); assay: Inhibition of B-Raf V600E mutant (unknown origin) assessed as MEK1 phosphorylation using MEK1-Avitag as substrate after 1 hr by HTRF assay
[31] = target: Platelet-derived growth factor receptor beta (Homo sapiens) (UniProt P09619); assay: Inhibition of partial length wild type human PDGFRbeta expressed in bacterial system assessed as enzyme activity at 1 uM relative to control; design: scale not given: the % may be the effect or the level left

Question: Which results are given for `CN(C)S(=O)(=O)Nc1ccc(F)c(Nc2ncccc2-c2ncnc3[nH]cnc23)c1F`?
Answer: Activity [1]: 83%; Activity [2]: 94%; Activity [3]: 100%; Activity [4]: 96%; Activity [5]: 98%; Activity [6]: 94%; Activity [7]: 87%; Activity [8]: 93%; Activity [9]: 100%; Activity [10]: 100%; Activity [11]: 87%; Activity [12]: 83%; Activity [13]: 99%; Activity [14]: 68%; Activity [15]: 100%; Activity [16]: 99%; Activity [17]: 100%; Activity [18]: 95%; Activity [19]: 60%; Activity [20]: 83%; Activity [21]: 65%; Activity [22]: 84%; Activity [23]: 94%; Activity [24]: 63%; Activity [25]: 100%; Activity [26]: 100%; Activity [27]: 100%; Activity [28]: 14%; Activity [29]: 100%; Ratio (MIA PaCa-2): 33; IC50 [30]: 8 nM; Activity [31]: 73%
